US6399052B2, “Treating hair by targeting enzymes” (Unilever Home & Personal Care USA division of Conopco, Inc., priority 1999, dated 2002)
Peptide text beside a SMILES is read from it. * marks the point of attachment. AMC = Cc1cc(=O)oc2cc(N*)ccc12; Cbz = O=C(OCc1ccccc1)*

Key:
[1] = tested on: cathepsin L-type protease activity of hair extract; experiment: peptidyl-AMC protease assay of hair fibre extract; assay type: biochemical, human
Protocol: Hair fibres taken from approx. 5 mm from the scalps of male and female individuals, aged 25-35, were cleaned, dried and then ground in liquid N2, and homogenised with an Ystral Homogeniser (high shear) using a 10 mm probe in extraction buffer (50 mM Citrate-Phosphate pH6.0, 2M NaCl).
Triton X-100 (2% stock) was added to the homogenate to a final concentration of 0.1%, and intermittently mixed by gentle agitation and incubated on ice for 1 hour. Large hair debris was allowed to precipitate and the solution was centrifuged at 13000 rpm for 5 minutes to remove insoluble protein. The resulting supernatant, containing soluble protein was dialysed (MWCO ca […]) in 50 mM citrate-phosphate, pH 6.0. Glycerol was added to the dialysed extract to 20% (v/v). The extracts were then aliquotted and stored at −20° C. until required.
With the above information, it was decided to investigate the protease profile of the hair extracts with the use of more specific peptide substrates (peptidyl-7-amido-4-methylcoumarin (peptidyl-AMC) substrates). Seven peptidyl-AMC substrates were used to study the protease types within the hair extract. These were selected on the basis of their specificity for individual protease species.
Stock solutions of each peptidyl-AMC substrate (Bachem) were prepared at 10 mM in DMSO and stored in aliquots at 4° C. Each aliquot was diluted to 1 mM with MQ water, prior to use. All assays (100 μl final volume) were routinely conducted in triplicate. For the measurement of cysteine protease activity, the standard assay contained 50 mM citrate-phosphate buffer pH 6.0, 100 μM peptidyl-AMC, 5 mM cysteine and approximately 1 μg protein extract. The assays were initiated by the addition of substrate and incubated at 30° C. for 2 hours. The reactions were terminated with the addition of 1 ml ‘stop’ solution (100 mM sodium monochloroacetate, 30 mM sodium acetate, 70 mM acetic acid).
The hydrolysed AMC was measured with the use of a fluorimeter set to 370 nm (excitation) and 460 nm (emission). Protease activity was quantified using standard concentrations of AMC. The fluorescence of each substrate and the hair extract were also measured and these values subtracted from the final fluorescence of each reaction, to give the value of fluorescence increase due to AMC liberation.

human steroid sulphatase = target: T1, human steroid sulphatase (Homo sapiens, UniProt P08842); details: substrate cholesterol-3-sulphate; cited from earlier work
T1 sequence (P08842 22-583): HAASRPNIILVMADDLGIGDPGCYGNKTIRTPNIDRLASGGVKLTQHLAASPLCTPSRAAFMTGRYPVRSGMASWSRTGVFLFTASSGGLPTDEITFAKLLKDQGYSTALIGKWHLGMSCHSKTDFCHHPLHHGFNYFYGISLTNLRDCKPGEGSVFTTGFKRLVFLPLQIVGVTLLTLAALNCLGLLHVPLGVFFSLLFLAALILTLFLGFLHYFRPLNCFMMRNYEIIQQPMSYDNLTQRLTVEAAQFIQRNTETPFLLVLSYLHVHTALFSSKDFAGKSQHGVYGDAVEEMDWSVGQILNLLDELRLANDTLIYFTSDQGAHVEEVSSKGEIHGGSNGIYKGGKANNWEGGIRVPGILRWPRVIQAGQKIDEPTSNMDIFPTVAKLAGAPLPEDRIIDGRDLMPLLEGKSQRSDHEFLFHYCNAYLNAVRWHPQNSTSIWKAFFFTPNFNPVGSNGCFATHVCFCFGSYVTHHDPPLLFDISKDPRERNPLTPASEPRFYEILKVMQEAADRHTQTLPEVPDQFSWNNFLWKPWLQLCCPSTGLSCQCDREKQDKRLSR

[2] = hair fibre extract, substrate z-Phe-Arg-AMC

## N[C@@H](CS)C(=O)O [cysteine]
[1]; [2]
  stimulation of the z-Phe-Arg-AMC hydrolysing activity of hair extract: stimulated

## CC(C)CCC[C@@H](C)[C@H]1CC[C@H]2[C@@H]3CC=C4C[C@@H](OS(=O)(=O)O)CC[C@]4(C)[C@H]3CC[C@]12C [cholesterol-3-sulphate]
Human steroid sulphatase
  Km: 5 µM

## CC(C)C[C@H](NC(=O)[C@H]1O[C@@H]1C(=O)O)C(=O)NCCCCN=C(N)N (relative stereo) [E-6464, L-trans-epoxysuccinyl-leucylamido(4-guanido)butane]
[1]; [2]
  inhibition of the z-Phe-Arg-AMC hydrolysing activity of hair extract: potently inhibited

## Cc1cc(=O)oc2cc(NC(=O)C(CCCN=C(N)N)NC(=O)C(Cc3ccccc3)NC(=O)OCc3ccccc3)ccc12 (stereo not drawn) [z-Phe-Arg-AMC] (Cbz-Phe-Arg-{AMC}; configuration not given here)
[1]; hair extract, 1 mg of extract from approx. 9 g hair
  apparent Vmax of cathepsin L-type activity: 1.66 nmoles AMC produced per minute per mg hair extract
[1]; seven peptidyl-AMC substrates, 100 μM, pH 6.0, 30° C., 2 hours
  hydrolysis by the hair extracts compared with the other peptidyl-AMC substrates: most hydrolysed
